The target in test [1] is T1, human liver cathepsin B (Homo sapiens, UniProt P07858).
T1 construct: purchased Sigma or EMDbiosciences; host or cells: human liver (as named)
The test can be described thus: Specificity assay, cathepsin B. The settings on record: read-out: Cathepsin B activity in the specificity assays. It counts as biochemical. As for the experimental part: (§1) The specificities of compounds of the present disclosure were determined against a variety of serine proteases: human neutrophil elastase (HNE), porcine pancreatic elastase (PPE) and human pancreatic chymotrypsin and one cysteine protease: human liver cathepsin B. In all cases, a 96-well plate format protocol using colorimetric p-nitroaniline (pNA) substrate or fluorometric Amino-Methyl-Coumarin (AMC) substrate, specific for each enzyme was used as described previously (PCT Patent Application No. WO 00/09543) with some modifications. All enzymes were purchased from Sigma or EMDbiosciences while the substrates were from Bachem.
(§2) Each pNA assay included a 2 h enzyme-inhibitor pre-incubation at room temperature followed by addition of substrate and hydrolysis to ˜15% conversion as measured on a Spectramax Pro microplate reader. The cathepsin B assay was initiated by adding substrate to a 10 min enzyme-inhibitor pre-incubation at room temperature, and the assay plate measured immediately using the Cytofluor Series 4000. Compound concentrations varied from 100 to 0.4 μM depending on their potency.
(§3) The final conditions for each assay were as follows: […]
(§4) The percentage of inhibition was calculated using the formula: [1−((UVinh−UVblank)/(UVctl−UVblank))]×100 […]

The target in test [2] is T2, HCV NS3/4A protease complex, BMS strain (UniProt P27958, species not given/STRAIN_BMS).
T2 construct: said of H77 and J4L6S; fused on or other part: A three-lysine solubilising tail at the C-terminus of NS4A and a His tag (pET21b, Ni-NTA purification)
T2 sequence (P27958 1027-1657, change not shown, one chain of several): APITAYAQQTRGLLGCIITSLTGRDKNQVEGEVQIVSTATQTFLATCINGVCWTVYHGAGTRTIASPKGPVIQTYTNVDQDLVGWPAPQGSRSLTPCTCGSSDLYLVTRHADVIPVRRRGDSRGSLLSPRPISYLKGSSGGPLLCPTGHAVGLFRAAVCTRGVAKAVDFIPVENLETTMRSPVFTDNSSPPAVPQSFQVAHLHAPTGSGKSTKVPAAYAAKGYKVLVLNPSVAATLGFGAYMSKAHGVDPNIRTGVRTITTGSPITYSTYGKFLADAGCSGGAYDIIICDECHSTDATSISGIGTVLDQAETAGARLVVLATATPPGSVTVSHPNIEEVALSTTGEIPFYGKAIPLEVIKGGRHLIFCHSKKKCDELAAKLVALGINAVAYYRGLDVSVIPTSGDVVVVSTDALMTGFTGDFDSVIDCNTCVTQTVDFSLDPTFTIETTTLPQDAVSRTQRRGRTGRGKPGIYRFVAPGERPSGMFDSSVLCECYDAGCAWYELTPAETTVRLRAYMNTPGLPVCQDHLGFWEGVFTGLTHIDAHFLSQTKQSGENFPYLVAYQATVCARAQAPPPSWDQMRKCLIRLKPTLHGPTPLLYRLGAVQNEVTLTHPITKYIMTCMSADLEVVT
Put plainly: FRET peptide assay to monitor HCV NS3/4A proteolytic activity (BMS strain). It is filed as biochemical, Hepatitis C virus (genotype 1a). The procedure, abridged: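 Recombinant NS3/4A complexes (aa 1027–1711) from H77 (1a) and J4L6S (1b) carried a three-lysine tail, C1711G and C1454S. They were expressed in E. coli BL21(DE3) (0.5 mM IPTG, 22 h, 20 °C), then purified by Ni-NTA and Superdex-S200 to >90% purity. The BMS strain was a genotype 1a clone from patient serum.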

Test [3] deals with human pancreatic chymotrypsin. Put plainly: Specificity assay, chymotrypsin. It is filed as biochemical. The following applies: read-out: Chymotrypsin activity in the specificity assays. As for the experimental part:
as §1, §2, §3, §4

Like-named read-outs stand apart in the source and are kept apart here.

The values below come from patent US7772183B2 (Bristol-Myers Squibb Company, priority 2005, dated 2010).

On to `CC(C)(C)OC(=O)N[C@H]1CCCCC/C=C\[C@@H]2C[C@@]2(C(=O)NS(=O)(=O)C2CC2)NC(=O)[C@@H]2C[C@@H](OC(=O)c3ccc(C#N)cc3)CN2C1=O` [Compound 26, 18-(4-cyanobenzoyloxy)-14-tert-butoxycarbonylamino-4-cyclopropylsulfonylaminocarbonyl-2,15-dioxo-3,16-diazatricyclo-[14.3.0.0^4,6]-nonadec-7-ene], for which the IC50 in test [1] is not below 100 µM; in test [2] (BMS strain, read-out: IC50 against the NS3/4A BMS strain in the enzyme assay) it was 0.78 nM; in test [2] (NS3/4A BMS strain, read-out: IC50 Range) it was less than 100 nM; in test [3] it was more than 100 µM.
